This is an account of results in patent publication US20130316394A1, “VIABILITY STAINING METHOD” (priority 2012, published 2013).

The test system of experiment [1] is E. coli. The experiment can be described thus: Discrimination of viable and non-viable E. coli in solution with fluorescent probe and two PET quenchers. The experiment is classed as cell-based. Particulars: mixed viable/heat killed E. coli, 0.005 mM Oxazine 170 perchlorate, 0.4 mM p-Sulfonic calix[6]arene, 100 mM Sodium ascorbate in PBS, about 5 min. On the procedure:
The viable and heat killed E. coli were preparations were prepared as described in Example 1. The heat killed E. coli suspension was then combined with the viable cell suspension and mixed by vortexing. The resulting cell suspension served as the viable and non-viable E. coli solution.
A fluorescent probe-quencher stain was prepared as a solution consisting of 0.005 mM Oxazine 170 perchlorate (Sigma-Aldrich, St. Louis, Mo.), 0.4 mM p-Sulfonic calix[6]arene (TCI America, Portland, Oreg.), 100 mM Sodium ascorbate (Sigma-Aldrich, St. Louis, Mo.) in PBS.
The viable and non-viable E. coli suspension was then diluted 1:1000 into the fluorescent probe-quencher solution to stain the cells. After incubation for approximately 5 minutes, a droplet of the stained cell solution was placed onto a microscope slide and imaged on a fluorescent microscope (Carl Zeiss, LLC, Thornwood, N.Y.).
FIGS. 20A and 20B show a combined image of the viable and non-viable stained E. coli captured under phase contrast (FIG. 20A) as well as fluorescent conditions (excitation 575-625 nm, emission 660-710 nm) (FIG. 20B). The viable and non-viable cells were indistinguishable in phase contrast but under fluorescent conditions the viable cells were brightly fluorescent whereas the non viable cells were not.

Experiment [2] deals with E. coli. In words: Imaging of viable and heat killed E. coli on a membrane with fluorescent probe and quencher wash. The experiment is classed as cell-based. As to conditions: 0.005 mM Oxazine 170 perchlorate stain, 10 mM quencher wash in PBS. As for the experimental part:
Viable and non-viable E. coli cell fractions were prepared by picking a colony cultured on a conventional media plate and then transferring the cells into Phosphate Buffered Saline (PBS). The cells then were suspended by vortexing and then were further diluted in PBS to give a turbidity equivalent to a 1.0 McFarland standard. This stock solution served as the live cell fraction. An aliquot of the live cell fraction was transferred to a glass tube that was placed into a boiling water bath for about 15 minutes to heat kill the E. coli. The tube was removed from the bath and allowed to cool to room temperature. This heat killed suspension served as the dead cell fraction.
A fluorescent stain solution was prepared as a 0.005 mM solution of Oxazine 170 perchlorate (Sigma-Aldrich, St. Louis, Mo.) in PBS containing a 1:100,000 dilution of 10% w/v 0.8 μm Sky Blue latex fluorescent particles (Spherotech, Lake Forest, Ill.). A separate quencher wash solution was prepared as a 10 mM Sodium ascorbate (Sigma-Aldrich, St. Louis, Mo.) solution in PBS. […]
The cells then were imaged using a fluorescent microscope (Carl Zeiss, LLC—Thornwood, N.Y.) with an excitation of 575 nm-625 nm and measured emission of 660 nm-710 nm. […]

The structures appear in SMILES notation.

With `O=S(=O)(O)c1cc2c(O)c(c1)Cc1cc(S(=O)(=O)O)cc(c1O)Cc1cc(S(=O)(=O)O)cc(c1O)Cc1cc(S(=O)(=O)O)cc(c1O)Cc1cc(S(=O)(=O)O)cc(c1O)Cc1cc(S(=O)(=O)O)cc(c1O)C2` [p-Sulfonic calix[6]arene, 4- Sulfocalix [6]arene], the “permeation of non-viable cell membranes and quenching of fluorescence” value in experiment [1] was “effective quenching of fluorescence”.

Turning to `O=C1O[C@H]([C@@H](O)CO)C([O-])=C1O.[Na+]` [sodium ascorbate, Sodium Ascorbate], the “permeation of the quencher into heat killed cells and effect on fluorescence” value in experiment [2] (heat killed E. coli on 0.2 μm membrane) was “quenching of the fluorescent signal and a loss of fluorescence”. For the same compound, the “permeation of the quencher into viable cells” value in experiment [2] (live E. coli on 0.2 μm membrane) was “excluded from the viable cells”. Besides, in experiment [1], the “permeation of non-viable cell membranes and quenching of fluorescence” value is “effective quenching of fluorescence”.
